Reference: US20030199671A1, “Binding molecules for Fc-region polypeptides” (priority 2001, published 2003)
Several values for one entry are separate records, joined by “and”; a condition that tells them apart may be missing. Identical values can stand only once. Like-named read-outs stand apart in the source and are kept apart here. Each block holds one compound with its values, some of them ahead of it.

Assays:
mouse IgG = type: binding
Procedure: (§1) In addition, the following targets, all unfractionated IgGs, were also evaluated with selected immobilized peptides for species specificity characterization in a similar format: human IgG, goat IgG, bovine IgG, and mouse IgG (Sigma, product nos. I4506, I5256, I5506, and I15381, respectively). In addition, 10 μl aliquots of hydrolyzed NHS-activated Sepharose 4 Fast Flow (Amersham Pharmacia Biotech, product no. 17-0906-01) and immobilized recombinant Protein A (RepliGen Corp., product no. IPA-400) were also assayed as negative and positive controls. IgG targets were diluted into 10 mM phosphate buffer containing 150 mM NaCl and 0.01% Tween 20, pH 7.2 (PBST) or 50 mM Tris buffer containing, 150 mM NaCl and 0.01% Tween-20, pH 7.5 (TBST). Batch (static) binding and elution studies were conducted in a 96-well assay filterplate (Millipore MultiScreen-HV, with 0.45 μm Durapore membrane, product no. MAHVN4510). The target was allowed to incubate with the resin for 1-1.5 hours with shaking at room temperature. Unbound target was collected by centrifugation of samples from the assay plate directly into a low-UV absorbing 96-well collection plate (Costar, product no. 3635 or Greiner, product no. 655801). The unbound target was then quantitated by reading the absorbance at 280 nm (normalized to 1 cm pathlength, 1.4 mg/ml A280 extinction coefficient) of the collection plate on a microplate spectrophotometer (Molecular Devices Corp., SPECTRAmax PLUS) against a buffer blank.
(§2) The percentage bound target was determined by subtracting the mass determined as unbound from the corresponding condition's control values (control non-filtered added directly to the collection plate and/or the negative control). The assay plate was washed (3×) with 200 μl of binding buffer by vacuum filtration followed by addition of 100 μl of various elution conditions (e.g.: 0.1 M sodium bicarbonate buffer, pH 8.5 and/or 0.1 M sodium citrate buffer, pH 4.0). After a 30-60 minute incubation with shaking at room temperature, the eluted target was collected by centrifugation of the assay plate into another collection plate and quantitated in a similar manner. Percent elution of total load was then determined to characterize elution recovery efficiency under various conditions. The assay plate was then washed (3×) with 200 μl of binding buffer by vacuum filtration followed by addition of a resin cleaning condition (e.g., 0.1M CAPS buffer (3-[Cyclohexylamino]-1-propane-sulfonic acid), pH 11.5, to regenerate the resin for re-use. Percentage mass balance determination was calculated to be 90-100% on average.

goat IgG = type: binding
Procedure: as §1, §2

human IgG = type: binding
Procedure: as §1, §2

human IgG2 = biological target: T1, human IgG2 (Homo sapiens, UniProt P01859); type: binding
T1 construct: all human subtypes derived from myeloma patients; purchased Calbiochem 400122; host or cells: myeloma patients
Procedure: as §1, §2

human IgG1 = biological target: T2, human IgG1 (Homo sapiens, UniProt P01857); type: binding
T2 construct: all human subtypes derived from myeloma patients; purchased Calbiochem 400120; host or cells: myeloma patients
Procedure: as §1, §2

bovine IgG = type: binding
Procedure: as §1, §2

human plasma IgG4 = biological target: T3, human plasma IgG4 (Homo sapiens, UniProt P01861); assay: Fluorescence anisotropy binding, Oregon Green labeled peptide
T3 construct: the individual human plasma IgG isoforms: IgG1, IgG2, IgG3, or IgG4; purchased Calbiochem; host or cells: human plasma
Procedure: (§3) Peptides were synthesized by BACHEM and then Oregon Green labeled and HPLC purified. Binding studies were performed using human plasma IgG isoforms: IgG1, IgG2, IgG3, and IgG4, obtained from Calbiochem.
(§4) Binding studies were carried out at either pH 4.0, 7.5, or 9.5, with or without salt in the following buffers:
(§5) 2) 10 mM Sodium Citrate, 500 mM Sodium Chloride, 0.01% Tween 20, pH 4.0;
(§6) 4) […], 500 mM Sodium Chloride, 0.01% Tween 20, pH 7.5;
(§7) 5) 10 mM Sodium Bicarbonate, 0.01% Tween 20, pH 9.5;
(§8) 6) 10 mM Sodium Bicarbonate, 500 mM Sodium Chloride, 0.01% Tween 20, pH 9.5; or […]

human plasma IgG1 = biological target: T4, human plasma IgG1 (Homo sapiens, UniProt P01857); assay: as above
T4 construct: the individual human plasma IgG isoforms: IgG1, IgG2, IgG3, or IgG4; purchased Calbiochem; host or cells: human plasma
Procedure: as §3, §4, §5, §6, §7, §8

human plasma IgG3 = biological target: T5, human plasma IgG3 (Homo sapiens, UniProt P01860); assay: as above
T5 construct: the individual human plasma IgG isoforms: IgG1, IgG2, IgG3, or IgG4; purchased Calbiochem; host or cells: human plasma
Procedure: as §3, §4, §5, §6, §7, §8

human plasma IgG2 = biological target: T6, human plasma IgG2 (Homo sapiens, UniProt P01859); assay: as above
T6 construct: the individual human plasma IgG isoforms: IgG1, IgG2, IgG3, or IgG4; purchased Calbiochem; host or cells: human plasma
Procedure: as §3, §4, §5, §6, §7, §8

IgG4 = IgG4 (Homo sapiens, UniProt P01861); type: binding; design: all human subtypes derived from myeloma patients; purchased Calbiochem 400126; host or cells: myeloma patients
Procedure: as §1, §2

IgG3 = IgG3 (Homo sapiens, UniProt P01860); type: binding; design: all human subtypes derived from myeloma patients; purchased Calbiochem 400124; host or cells: myeloma patients
Procedure: as §1, §2

[1] = Table 9, immobilized peptide, 5.0 mg/ml resin load
[2] = Table 14, average ligand density 1.8 μM/ml
[3] = Table 13, average ligand density 1.8 μM/ml

T4 sequence (P01857 1-330 isoform P01857-1): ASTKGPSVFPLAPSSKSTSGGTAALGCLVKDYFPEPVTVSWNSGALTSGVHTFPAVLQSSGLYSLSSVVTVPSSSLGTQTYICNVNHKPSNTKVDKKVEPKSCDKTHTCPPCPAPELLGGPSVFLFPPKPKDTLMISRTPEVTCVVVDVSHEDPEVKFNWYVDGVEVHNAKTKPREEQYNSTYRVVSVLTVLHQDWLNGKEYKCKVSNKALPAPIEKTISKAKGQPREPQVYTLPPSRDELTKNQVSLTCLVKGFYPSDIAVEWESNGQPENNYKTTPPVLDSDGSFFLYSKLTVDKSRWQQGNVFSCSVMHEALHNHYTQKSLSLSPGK
T2 sequence (P01857 1-330 isoform P01857-1): as above
T6 sequence (P01859 1-326 isoform P01859-1): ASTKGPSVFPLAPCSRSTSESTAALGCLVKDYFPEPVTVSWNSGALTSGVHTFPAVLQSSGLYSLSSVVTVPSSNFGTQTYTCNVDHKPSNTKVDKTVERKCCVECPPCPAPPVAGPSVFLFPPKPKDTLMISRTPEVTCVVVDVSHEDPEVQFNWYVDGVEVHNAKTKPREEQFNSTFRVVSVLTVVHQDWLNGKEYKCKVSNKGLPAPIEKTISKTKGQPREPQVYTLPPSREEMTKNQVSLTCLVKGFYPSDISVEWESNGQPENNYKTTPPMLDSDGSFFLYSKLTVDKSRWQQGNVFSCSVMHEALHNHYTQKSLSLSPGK
T1 sequence (P01859 1-326 isoform P01859-1): as above
T5 sequence (P01860 1-377 isoform P01860-1): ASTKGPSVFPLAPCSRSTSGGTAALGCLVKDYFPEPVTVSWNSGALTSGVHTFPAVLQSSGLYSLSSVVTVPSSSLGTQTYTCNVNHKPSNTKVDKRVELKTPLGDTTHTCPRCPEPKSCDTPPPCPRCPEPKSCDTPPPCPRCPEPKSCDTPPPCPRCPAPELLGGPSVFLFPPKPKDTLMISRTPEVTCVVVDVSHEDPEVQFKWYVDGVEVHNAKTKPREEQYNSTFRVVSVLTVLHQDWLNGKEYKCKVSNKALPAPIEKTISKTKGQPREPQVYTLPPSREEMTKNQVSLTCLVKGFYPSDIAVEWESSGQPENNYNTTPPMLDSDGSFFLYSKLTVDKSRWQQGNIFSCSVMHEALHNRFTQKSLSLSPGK
Sequence of IgG3 (P01860 1-377 isoform P01860-1): as above
Sequence of IgG4 (P01861 1-327 isoform P01861-1): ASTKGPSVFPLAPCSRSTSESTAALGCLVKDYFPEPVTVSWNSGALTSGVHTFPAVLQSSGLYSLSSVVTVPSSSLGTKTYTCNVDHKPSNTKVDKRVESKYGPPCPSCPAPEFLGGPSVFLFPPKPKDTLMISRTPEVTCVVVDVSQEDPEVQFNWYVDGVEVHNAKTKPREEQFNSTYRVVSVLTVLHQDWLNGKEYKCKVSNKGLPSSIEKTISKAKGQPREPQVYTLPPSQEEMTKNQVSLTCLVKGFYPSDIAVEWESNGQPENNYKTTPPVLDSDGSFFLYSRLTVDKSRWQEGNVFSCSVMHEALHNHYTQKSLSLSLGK
T3 sequence (P01861 1-327 isoform P01861-1): as above

Compound: CC(=O)N[C@@H](C)C(=O)NCC(=O)N[C@H](C(=O)N[C@@H](Cc1ccc(O)cc1)C(=O)N[C@@H](Cc1c[nH]c2ccccc12)C(=O)N[C@H]1CSSC[C@@H](C(=O)N[C@@H](CC(=O)O)C(=O)N2CCC[C@H]2C(=O)N[C@@H](C)C(=O)N2CCC[C@H]2C(=O)NCC(=O)N2CCC[C@H]2C(=O)N[C@@H](CCC(=O)O)C(=O)NCC(=O)NCC(=O)NCC(=O)N[C@@H](CCCCN)C(N)=O)NC(=O)[C@@H]2CCCN2C(=O)[C@H](CC(C)C)NC(=O)[C@H](CCC(=O)O)NC(=O)[C@H](Cc2c[nH]c3ccccc23)NC(=O)[C@H](Cc2ccccc2)NC(=O)[C@H]([C@@H](C)O)NC1=O)[C@@H](C)O [DX404]
- % IgG Capture - Batch Binding, Mouse IgG (mouse IgG; Table 11, unfractionated IgG): 2%
- % IgG Capture - Batch Binding, Goat IgG (goat IgG; Table 11, unfractionated IgG): 0%
- % IgG Capture - Batch Binding, Human IgG (human IgG; Table 11, unfractionated IgG): 30%
- % IgG Capture - Batch Binding, Human IgG2 (human IgG2; [1]): 11%
- % IgG Capture - Batch Binding, Human IgG1 (human IgG1; [1]): 38%
- % IgG Capture - Batch Binding, Bovine IgG (bovine IgG; Table 11, unfractionated IgG): 0%
- Kd (human plasma IgG4; 10 nM Tris-HCl, 500 mM Sodium Chloride, pH 7.5, read-out: KD (μM) IgG4 pH 7.5 + salt): > 10 µM
- Kd (human plasma IgG4; 10 mM Sodium Bicarbonate, 500 mM Sodium Chloride, pH 9.5, read-out: KD (μM) IgG4 pH 9.5 + salt): > 10 µM
- Kd (human plasma IgG4; 10 mM Sodium Bicarbonate, pH 9.5, read-out: KD (μM) IgG4 pH 9.5 − salt): > 10 µM
- Kd (human plasma IgG4; 10 mM Sodium Citrate, 500 mM Sodium Chloride, pH 4.0, read-out: KD (μM) IgG4 pH 4.0 + salt): > 10 µM
- Kd (human plasma IgG4; 10 mM Sodium Citrate, pH 4.0, read-out: KD (μM) IgG4 pH 4.0 − salt): > 10 µM
- Kd (human plasma IgG4; 10 mM Tris-HCl, pH 7.5, read-out: KD (μM) IgG4 pH 7.5 − salt): > 10 µM
- Kd (human plasma IgG1; 10 nM Tris-HCl, 500 mM Sodium Chloride, pH 7.5, read-out: KD (μM) IgG1 pH 7.5 + salt): > 10 µM
- Kd (human plasma IgG1; 10 mM Sodium Bicarbonate, 500 mM Sodium Chloride, pH 9.5, read-out: KD (μM) IgG1 pH 9.5 + salt): > 10 µM
- Kd (human plasma IgG1; 10 mM Sodium Bicarbonate, pH 9.5, read-out: KD (μM) IgG1 pH 9.5 − salt): > 10 µM
- Kd (human plasma IgG1; 10 mM Sodium Citrate, 500 mM Sodium Chloride, pH 4.0, read-out: KD (μM) IgG1 pH 4.0 + salt): ~2 µM and 2 µM
- Kd (human plasma IgG1; 10 mM Sodium Citrate, pH 4.0, read-out: KD (μM) IgG1 pH 4.0 − salt): ~2 µM
- Kd (human plasma IgG3; 10 mM Sodium Bicarbonate, 500 mM Sodium Chloride, pH 9.5, read-out: KD (μM) IgG3 pH 9.5 + salt): > 10 µM
- Kd (human plasma IgG3; 10 mM Sodium Bicarbonate, pH 9.5, read-out: KD (μM) IgG3 pH 9.5 − salt): > 10 µM
- Kd (human plasma IgG3; 10 mM Sodium Citrate, 500 mM Sodium Chloride, pH 4.0, read-out: KD (μM) IgG3 pH 4.0 + salt): 0.2 µM
- Kd (human plasma IgG3; 10 mM Sodium Citrate, pH 4.0, read-out: KD (μM) IgG3 pH 4.0 − salt): ~0.01 µM and 0.01 µM
- Kd (human plasma IgG2; 10 nM Tris-HCl, 500 mM Sodium Chloride, pH 7.5, read-out: KD (μM) IgG2 pH 7.5 + salt): > 10 µM
- Kd (human plasma IgG2; 10 mM Sodium Bicarbonate, 500 mM Sodium Chloride, pH 9.5, read-out: KD (μM) IgG2 pH 9.5 + salt): > 10 µM
- Kd (human plasma IgG2; 10 mM Sodium Bicarbonate, pH 9.5, read-out: KD (μM) IgG2 pH 9.5 − salt): > 10 µM
- Kd (human plasma IgG2; 10 mM Sodium Citrate, 500 mM Sodium Chloride, pH 4.0, read-out: KD (μM) IgG2 pH 4.0 + salt): ~2 µM and 2 µM
- Kd (human plasma IgG2; 10 mM Sodium Citrate, pH 4.0, read-out: KD (μM) IgG2 pH 4.0 − salt): ~2 µM
- % IgG Capture - Batch Binding, Human IgG4 (IgG4; [1]): 10%
- % IgG Capture - Batch Binding, Human IgG3 (IgG3; [1]): 74%

- % IgG Capture - Batch Binding, Mouse IgG (mouse IgG; [2]): 5%
- % IgG Capture - Batch Binding, Goat IgG (goat IgG; [2]): 8%
- % IgG Capture - Batch Binding, Human IgG (human IgG; [2]): 72%
- hIgG2 elution pH 2.5 (% of Total Load) (human IgG2; Table 13): 71%
- hIgG2 elution pH 3.5 (% of Total Load) (human IgG2; Table 13): 92%
- hIgG2 elution pH 4.5 (% of Total Load) (human IgG2; Table 13): 44%
- hIgG2 elution pH 5.5 (% of Total Load) (human IgG2; Table 13): 3%
- hIgG2 elution pH 9.0 (% of Total Load) (human IgG2; Table 13): 58%
- hIgG2 elution pH 9.5 (% of Total Load) (human IgG2; Table 13): 64%
- hIgG2 Bound (% of Total Load) (human IgG2; [3]): 81%
- hIgG1 elution pH 2.5 (% of Total Load) (human IgG1; Table 13): 66%
- hIgG1 elution pH 3.5 (% of Total Load) (human IgG1; Table 13): 78%
- hIgG1 elution pH 4.5 (% of Total Load) (human IgG1; Table 13): 61%
- hIgG1 elution pH 5.5 (% of Total Load) (human IgG1; Table 13): 3%
- hIgG1 elution pH 9.0 (% of Total Load) (human IgG1; Table 13): 62%
- hIgG1 elution pH 9.5 (% of Total Load) (human IgG1; Table 13): 58%
- hIgG1 Bound (% of Total Load) (human IgG1; [3]): 87%
- % IgG Capture - Batch Binding, Bovine IgG (bovine IgG; [2]): 5%
- hIgG4 elution pH 2.5 (% of Total Load) (IgG4; Table 13): 44%
- hIgG4 elution pH 3.5 (% of Total Load) (IgG4; Table 13): 61%
- hIgG4 elution pH 4.5 (% of Total Load) (IgG4; Table 13): 17%
- hIgG4 elution pH 5.5 (% of Total Load) (IgG4; Table 13): 2%
- hIgG4 elution pH 9.0 (% of Total Load) (IgG4; Table 13): 55%
- hIgG4 elution pH 9.5 (% of Total Load) (IgG4; Table 13): 67%
- hIgG4 Bound (% of Total Load) (IgG4; [3]): 65%
- hIgG3 elution pH 2.5 (% of Total Load) (IgG3; Table 13): 0%
- hIgG3 elution pH 3.5 (% of Total Load) (IgG3; Table 13): 0%
- hIgG3 elution pH 4.5 (% of Total Load) (IgG3; Table 13): 0%
- hIgG3 elution pH 5.5 (% of Total Load) (IgG3; Table 13): 0%
- hIgG3 elution pH 9.0 (% of Total Load) (IgG3; Table 13): 0%
- hIgG3 elution pH 9.5 (% of Total Load) (IgG3; Table 13): 0%
- hIgG3 Bound (% of Total Load) (IgG3; [3]): 0%
Compound: Ac-GDNPMCWKKSWWEDAYCINHGTPGPEGGGK-NH2 (not fully specified (bridges); printed as Ac-GDNPMCWKKSWWEDAYCINHGTPGPEGGGK-NH2; cysteine pairing not given here) [DX596]
